# Results published in patent US20240279205A1, “NOVEL BENZIMIDAZOLE DERIVATIVE” (Carna Biosciences, Inc., priority 2020, published 2024).
# Counter-ions that a name gives are not always drawn.
# Molecular target: T1, human STING (hSTING) (Homo sapiens, UniProt Q86WV6)
# T1 construct: host or cells: HEK-Blue ISG cells (HEK293-derived SEAP reporter line)
# Assay: Inhibition test of intracellular human STING (hSTING) pathway using SEAP reporter cells (HEK-Blue ISG), stimulation with Compound 3
# Format: cell-based
# Set-up: hSTING inhibitory activity: scale not given here
# Conditions: Compound 3 10 nM stimulation, 21 hours
# Outline: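 HEK-Blue ISG cells with IRF-inducible SEAP reporter, pretreated 1 h with compound (final 0.1 to 10 μM), then stimulated with Compound 3 (final 10 nM) for 21 h at 37° C. Supernatant SEAP measured colorimetrically; IC50 from log-concentration regression, normalized to stimulated (100%) and unstimulated (0%) controls.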
# T1 sequence (Q86WV6 whole entry H232R): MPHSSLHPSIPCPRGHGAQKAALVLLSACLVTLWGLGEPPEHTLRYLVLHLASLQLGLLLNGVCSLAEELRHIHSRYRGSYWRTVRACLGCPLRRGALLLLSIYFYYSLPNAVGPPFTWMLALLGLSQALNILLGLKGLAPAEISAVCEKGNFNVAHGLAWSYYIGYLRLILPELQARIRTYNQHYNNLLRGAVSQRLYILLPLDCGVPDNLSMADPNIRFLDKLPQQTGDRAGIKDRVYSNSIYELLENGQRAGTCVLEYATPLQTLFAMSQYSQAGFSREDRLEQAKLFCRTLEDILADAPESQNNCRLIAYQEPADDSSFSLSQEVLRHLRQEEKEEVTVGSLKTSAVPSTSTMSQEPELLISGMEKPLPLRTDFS
row,SMILES,hSTING inhibitory activity
1,"Brc1ccc2[nH]cc(Nc3nc4cc(Oc5cccnc5)ccc4[nH]3)c2c1 [Example 13, N-(5-bromo-1H-indol-3-yl)-5-(pyridin-3-yloxy)-1H-benzo[d]imidazol-2-amine]",* *
2,"CS(=O)(=O)c1cccc(Oc2ccc3[nH]c(Nc4c[nH]c5ccc(Br)nc45)nc3c2)c1 [Embodiment 67, N-(5-bromo-1H-pyrrolo[3,2-b]pyridin-3-yl)-5-[3-(methylsulfonyl)phenoxy]-1H-benzo[d]imidazol-2-amine]",* *

# Next, values leading:
row,hSTING inhibitory activity,SMILES
1,* *,"Cn1c(Nc2c[nH]c3ccc(Cl)nc23)nc2cc(F)c(Oc3ccccc3)cc21 [Embodiment 194, N-(5-Chloro-1H-pyrrolo[3,2-b]pyridin-3-yl)-5-fluoro-1-methyl-6-phenoxy-1H-benzo[d]imidazol-2-amine]"
2,* *,"Cn1c(Nc2c[nH]c3ccc(Cl)cc23)nc2cc(C3CCOCC3)ccc21 [Embodiment 197, N-(5-Chloro-1H-indol-3-yl)-1-methyl-5-(tetrahydro-2H-pyran-4-yl)-1H-benzo[d]imidazole-2-amine formate]"
3,* *,"Fc1cc(C2CCOCC2)cc2nc(Nc3c[nH]c4ccc(Cl)nc34)[nH]c12 [Embodiment 175, N-(5-Chloro-1H-pyrrolo[3,2-b]pyridin-3-yl)-7-fluoro-5-(tetrahydro-2H-pyran-4-yl)-1H-benzo[d]imidazol-2-amine]"

# Same assay, conditions: Compound 3 10 nM stimulation, 21 hours, read-out: hSTING inhibitory activity
row,SMILES,IC50
1,"Brc1cccc2[nH]cc(Nc3nc4ccccc4[nH]3)c12 [Example 9, N-(4-bromo-1H-indol-3-yl)-1H-benzo[d]imidazol-2-amine]",≥ 10 µM
2,"COCCn1c(Nc2c[nH]c3ccc(Cl)nc23)nc2c(F)c(F)ccc21 [Embodiment 200, N-(5-chloro-1H-pyrrolo[3,2-b]pyridin-3-yl)-4,5-difluoro-1-(2-methoxyethyl)-1H-benzo[d] imidazole-2-amine]",≥ 10 µM
3,"c1ccc(Oc2ccc3[nH]c(Nc4c[nH]c5c(-c6cccnc6)ccnc45)nc3c2)cc1 [Embodiment 164, 5-phenoxy-N-[7-(pyridin-3-yl)-1H-pyrrolo[3,2-b]pyridin-3-yl]-1H-benzo[d]imidazol-2-amine]",1 to 10 µM
4,"CN(C)Cc1ccccc1Oc1ccc2[nH]c(Nc3c[nH]c4ccc(Cl)nc34)nc2c1 [Embodiment 83, N-(5-chloro-1H-pyrrolo[3,2-b]pyridin-3-yl)-5-{2-[(dimethylamino)methyl]phenoxy}-1H-benzo [d]imidazole-2-amine formate]",≥ 10 µM
5,"CN(C)CCn1c(Nc2c[nH]c3ccc(Cl)nc23)nc2ccc(Oc3ccccc3)cc21 [Embodiment 134, N-(5-Chloro-1H-pyrrolo[3,2-b]pyridin-3-yl)-1-[2-(dimethylamino)ethyl]-6-phenoxy-1H-benzo[d] imidazole-2-amine diformate]",≥ 10 µM
6,"Cn1c(Nc2c[nH]c3ccc(Cl)nc23)nc2ccc(Oc3ccc(C#N)cc3)cc21 [Embodiment 174, 4-({2-[(5-chloro-1H-pyrrolo[3,2-b]pyridin-3-yl)amino]-1-methyl-1H-benzo[d]imidazol-6-yl} Oxy)benzonitrile]",≥ 10 µM
7,"O=[N+]([O-])c1cc2[nH]c(Nc3c[nH]c4ccc(Cl)nc34)nc2cc1F [Embodiment 177, N-(5-Chloro-1H-pyrrolo[3,2-b]pyridin-3-yl)-5-fluoro-6-nitro-1H-benzo[d]imidazol-2-amine]",1 to 10 µM
8,"CN(C)CC#Cc1ccc2[nH]c(Nc3c[nH]c4ccc(Cl)nc34)nc2c1 [Embodiment 146, N-(5-Chloro-1H-pyrrolo[3,2-b]pyridin-3-yl)-5-[3-(dimethylamino)prop-1-yn-1-yl]-1H-benzo[d] Imidazol-2-amine]",≥ 10 µM
9,"CS(=O)(=O)c1ccc(Oc2ccc3[nH]c(Nc4c[nH]c5ccc(Br)nc45)nc3c2)cc1 [Embodiment 66, N-(5-bromo-1H-pyrrolo[3,2-b]pyridin-3-yl)-5-[4-(methylsulfonyl)phenoxy]-1H-benzo[d]imidazol-2-amine]",1 to 10 µM
10,"Brc1cccc2c(Nc3nc4ccccc4[nH]3)c[nH]c12 [Example 17, N-(7-bromo-1H-indol-3-yl)-1H-benzo[d]imidazol-2-amine]",≥ 10 µM
11,"COCCn1c(Nc2c[nH]c3ccc(Cl)nc23)nc2cc(F)cc(F)c21 [Embodiment 205, N-(5-chloro-1H-pyrrolo[3,2-b]pyridin-3-yl)-5,7-difluoro-1-(2-methoxyethyl)-1H-benzo[d]imidazole-2-amine]",≥ 10 µM
12,"COCCOc1ccc2[nH]c(Nc3c[nH]c4ccc(Cl)nc34)nc2c1 [Embodiment 140, N-(5-Chloro-1H-pyrrolo[3,2-b]pyridin-3-yl)-5-(2-methoxyethoxy)-1H-benzo[d]imidazol-2-amine]",≥ 10 µM
13,"COCCn1c(Nc2c[nH]c3ccc(Cl)nc23)nc2ccc(Oc3cccnc3)cc21 [Embodiment 207, N-(5-Chloro-1H-pyrrolo[3,2-b]pyridin-3-yl)-1-(2-methylxhetyl)-6-(pyridin-3-yloxy)-1H-benzo[d] imidazol-2-amine]",≥ 10 µM
14,"CN(C)Cc1cccc(Oc2ccc3[nH]c(Nc4c[nH]c5ccc(Cl)nc45)nc3c2)c1 [Embodiment 81, N-(5-chloro-1H-pyrrolo[3,2-b]pyridin-3-yl)-5-{3-[(dimethylamino)methyl]phenoxy}-1H-benzo [d]imidazole-2-amine formate]",1 to 10 µM
15,"COCCn1c(Nc2c[nH]c3ccc(Cl)nc23)nc2ccc(C(F)(F)F)cc21 [Embodiment 179, N-(5-chloro-1H-pyrrolo[3,2-b]pyridin-3-yl)-1-(2-methoxyethyl)-6-(trifluoromethyl)-1H-benzo[d]imidazol-2-amine]",≥ 10 µM

# Other lines, results leading:
row,IC50,SMILES
1,1 to 10 µM,"C=Cc1ccc2[nH]cc(Nc3nc4cc(C(F)(F)F)ccc4n3C)c2n1 [Embodiment 171, 1-methyl-5-(trifluoromethyl)-N-(5-vinyl-1H-pyrrolo[3,2-b]pyridin-3-yl)-1H-benzo[d]imidazol-2-amine]"
2,≥ 10 µM,"Cn1c(Nc2c[nH]c3ccc(Cl)nc23)nc2ccc(OC(F)(F)F)cc21 [Embodiment 211, N-(5-Chloro-1H-pyrrolo[3,2-b]pyridin-3-yl)-1-methyl-6-(trifluoromethoxy)-1H-benzo[d] imidazol-2-amine]"
3,≥ 10 µM,"Cn1c(Nc2c[nH]c3ccc(Cl)nc23)nc2cc(F)c(F)cc21 [Embodiment 138, N-(5-Chloro-1H-pyrrolo[3,2-b]pyridin-3-yl)-5,6-difluoro-1-methyl-1H-benzo[d]imidazol-2-amine]"
4,≥ 10 µM,"Cn1cnc(-n2c(Nc3c[nH]c4ccc(Cl)cc34)nc3cc(C(F)(F)F)ccc32)c1 [Embodiment 227, N-(5-Chloro-1H-indol-3-yl)-1-(1-methyl-1H-imidazol-4-yl)-5-(trifluoromethyl)-1H-benzo[d] imidazole-2-amine]"
5,1 to 10 µM,"FC(F)(F)c1ccc2c(c1)nc(Nc1c[nH]c3ccc(Cl)cc13)n2N1CCOCC1 [Embodiment 235, N-(5-Chloro-1H-indol-3-yl)-1-morpholino-5-(trifluoromethyl)-1H-benzo[d]imidazol-2-amine]"
6,1 to 10 µM,"CS(=O)(=O)CCn1c(Nc2c[nH]c3ccc(Cl)cc23)nc2cc(C(F)(F)F)ccc21 [Embodiment 230, N-(5-Chloro-1H-indol-3-yl)-1-[2-(methylsulfonyl)ethyl]-5-(trifluoromethyl)-1H-benzo[d] imidazol-2-amine]"
